According to ChEMBL document CHEMBL1154961, “Structure-activity relationships of bacterial outer-membrane permeabilizers based on polymyxin B heptapeptides” (2010):
Converted amounts (≈) assume the structure as drawn.

How the values were obtained:
[1] = tested on: Escherichia coli; assay: Antibacterial activity against Escherichia coli K-12 W3110 after 20 hrs by liquid microdilution method; assay type: functional; conditions: K-12 W3110, 20 h
[2] = tested on: Staphylococcus aureus; assay: Antibacterial activity against Staphylococcus aureus 209P after 20 hrs by liquid microdilution method; assay type: functional
[3] = tested on: Escherichia coli; assay: Induction of outer membrane permeability in Escherichia coli K-12 W3110 assessed as increase in erythromycin antibacterial activity after 20 hrs by liquid microdilution method; assay type: functional, organism-based
[4] = tested on: Escherichia coli; assay: Induction of outer membrane permeability in Escherichia coli K-12 W3110 assessed as increase in novobiocin antibacterial activity after 20 hrs by liquid microdilution method; assay type: functional, organism-based

Compound `CCCCCCCC(=O)N[C@@H](CCN)C(=O)N[C@@](C)(C(=O)N[C@@H](CCN)C(=O)N[C@H]1CCNC(=O)[C@H]([C@@H](C)O)NC(=O)[C@H](CCN)NC(=O)[C@H](CCN)NC(=O)[C@H](CC(C)C)NC(=O)[C@@H](Cc2ccccc2)NC(=O)[C@H](CCN)N1)[C@H](C)O` has an MIC [1] of 0.5 µg/mL (≈ 0.425 µM) and an MIC [2] of over 128 µg/mL.
For `CC(C)C[C@@H]1NC(=O)[C@@H](Cc2ccccc2)NC(=O)[C@H](CCN)N(C(=O)O)CCNC(=O)[C@H]([C@@H](C)O)NC(=O)[C@H](CCN)NC(=O)[C@H](CCN)NC1=O`, the Activity [3] was “Dose-dependent effect”, the MIC [1] was over 128 µg/mL and the Activity [4] was “Dose-dependent effect”.
With `CC(C)C[C@@H]1NC(=O)[C@@H](Cc2ccccc2)NC(=O)[C@H](CN)N(C(=O)O)CCNC(=O)[C@H]([C@@H](C)O)NC(=O)[C@H](CN)NC(=O)[C@H](CN)NC1=O` the MIC [1] was over 128 µg/mL.
With `CC(C)C[C@@H]1NC(=O)[C@@H](Cc2ccccc2)NC(=O)[C@H](CN)N(C(=O)O)CCNC(=O)[C@H]([C@@H](C)O)NC(=O)[C@H](CCCN)NC(=O)[C@H](CN)NC1=O` the MIC [1] was over 128 µg/mL.
`CC(C)C[C@@H]1NC(=O)[C@@H](Cc2ccccc2)NC(=O)[C@H](CCCN)N(C(=O)O)CCNC(=O)[C@H]([C@@H](C)O)NC(=O)[C@H](CCCN)NC(=O)[C@H](CCCN)NC1=O` showed an MIC [1] of over 128 µg/mL.
`CC[C@H]1OC(=O)[C@H](C)[C@@H](O[C@H]2C[C@@](C)(OC)[C@@H](O)[C@H](C)O2)[C@H](C)[C@@H](O[C@@H]2O[C@H](C)C[C@H](N(C)C)[C@H]2O)[C@](C)(O)C[C@@H](C)C(=O)[C@H](C)[C@@H](O)[C@]1(C)O` [ERYTHROMYCIN] was tested, and the MIC [1] was 64 µg/mL (≈ 87.2 µM).
`CO[C@@H]1[C@@H](OC(N)=O)[C@@H](O)[C@H](Oc2ccc3c(O)c(NC(=O)c4ccc(O)c(CC=C(C)C)c4)c(=O)oc3c2C)OC1(C)C` [NOVOBIOCIN] gave an MIC [1] of 128 µg/mL (≈ 209 µM).
`CC(C)C[C@@H]1NC(=O)[C@@H](Cc2ccccc2)NC(=O)[C@H](CN)N(C(=O)O)CCNC(=O)[C@H]([C@@H](C)O)NC(=O)[C@H](CN)NC(=O)[C@H](CCCN)NC1=O` gave an MIC [1] of over 128 µg/mL.
`CCCCCCCC(=O)N[C@@H](CCN)C(=O)N[C@@H](C(=O)N[C@@H](CCN)C(=O)N[C@H]1CCNC(=O)[C@H]([C@H](C)O)NC(=O)[C@H](CCN)NC(=O)[C@H](CCN)NC(=O)[C@H](CC(C)C)NC(=O)[C@@H](Cc2ccccc2)NC(=O)[C@H](CN)C1=O)[C@H](C)O` gave an MIC [1] of 16 µg/mL (≈ 13.8 µM) and an MIC [2] of over 128 µg/mL.
`CC(C)CCCCCCCC(=O)N[C@@H](C(=O)N[C@@H](CN)C(=O)NCC(=O)N1CCNC(=O)[C@H]([C@@H](C)O)NC(=O)[C@H](CCN)NC(=O)[C@H](CCN)NC(=O)[C@H](CC(C)C)NC(=O)[C@@H](Cc2ccccc2)NC(=O)[C@@H]1CCN)[C@@H](C)O` showed an MIC [1] of 0.5 µg/mL (≈ 0.447 µM) and an MIC [2] of 64 µg/mL (≈ 57.3 µM).
